The structures appear in SMILES notation. Several values for one entry are separate records, joined by “and”; a condition that tells them apart may be missing. Equal values may be shown once.

The values below come from patent US6855828B1, “Detection of hypoxia” (The Trustees of the University of Pennsylvania, priority 1992, dated 2005).

Series [1] in a line: Tissue distribution of [^18F]-EF1 in rats bearing tumors (γ-counter). In kind it is in vivo. The note with it: tumor-bearing rat, I/V. The text has this: (§1) Q7 cells were obtained from the American Type Culture Collection (ATCC). They were maintained in exponential growth by transfers at 3.5 day intervals with standard culture conditions. Growth medium was Eagle's MEM supplemented with 15% fetal calf serum and standard penicillin and streptomycin.
(§2) All animal studies conformed to the regulations of the University of Pennsylvania Institutional Animal Care and Use Committee. Male Buffalo rats (Harlan Sprague Dawley, Indianapolis, Ind., USA) were used for all studies. Donor tumors were created by injecting 1 million Q7 cells subcutaneously into the thigh region. The average growth time to achieve a 1 cm diameter tumor was 21 days. Tumors of less than 2 g were used in the experiments.
(§3) To measure the distribution of radioactive drug in various organs and tissues, the solution of [^18F]-EF1 in saline buffer was injected I/V into 2 male Buffalo rats. Animals was sacrificed and the samples of tissues were collected and weighted. The radioactivity of samples was measured by γ-counter and corrected for weight and the time of decay.
In particular, note that the density of radioactive counts closely parallels the findings from the image analysis. Results from 2 animals, are shown. PET and immunohistochemical images from both animals were very similar (data not shown)

A short description of series [2]: Distribution of [^18F]-EF1 in murine organs and tissues. In kind it is in vivo, mice. The arrangement: Distribution in murine tissues, Kidney / Distribution in murine tissues, Heart / Distribution in murine tissues, Muscle / Distribution in murine tissues, Liver / Distribution in murine tissues, Spleen: unit not given beside the values. How it is done: as §3
The distribution of radioactive drug in various murine organs and tissues was measured similarly to the previous example. [^18F]-EF1 was injected into 4 mice, which were sacrificed after 5 and 90 minutes and the radioactivity of tissues was measured.

The next series relates to Morris 7777 hepatoma. The experiment in a line: PET image of tumor-bearing rat treated with [^18F]-EF1. The note with it: 150 minutes post injection. Type of series: in vivo. How it is done:
FIG. 4 illustrates a PET image of a tumor-bearing rat treated with 18-F-labeled EF1 (2-(2-nitro-1H-imidazol-1-yl)-N-3-monofluoropropyl) acetamide, 150 minutes post injection.
as §1, §2
It is believed that this is the first PET image of a rodent tumor where substantial image modifications to eliminate gut clearance effects have not been necessary.

Series [3] concerns existing antibodies (to EF5 and EF3). The experiment in a line: Affinity of existing antibodies towards EF1. In kind it is binding.

As for `O=C(Cn1ccnc1[N+](=O)[O-])NCCCF` [[^18F]-EF1, (2-(2-nitro-1H-imidazol-1-yl)-N-3-monofluoropropyl) acetamide], the “Tissue distribution, Brain” value in series [1] (3 hrs, Brain) is 0.13 % dose/gram and 0.11 % dose/gram. Besides, the “Tissue distribution, Kidney” value in series [1] (3 hrs, Kidney) was 0.54 % dose/gram and 0.29 % dose/gram. Further, the “Tissue distribution, Liver” value in series [1] (3 hrs, Liver) is 0.25 % dose/gram and 0.21 % dose/gram. In series [1] (3 hrs), the “Tissue distribution, Muscle” value was 0.17 % dose/gram and 0.13 % dose/gram; the “Tissue distribution, Tumor” value is 0.34 % dose/gram and 0.28 % dose/gram. Moreover, the “Tissue distribution, Spleen” value in series [1] (3 hrs, Spleen) was 0.17 % dose/gram and 0.13 % dose/gram. For the same compound, in series [1] (4 hrs), the “Tissue distribution, Muscle” value is 0.23 % dose/gram and 0.13 % dose/gram; the “Tissue distribution, Tumor” value is 0.64 % dose/gram and 0.44 % dose/gram. The “Density of label in mouse-brain tissue compared with other organs” value in series [2] (early times) is “substantially lower densities”. In series [2] (mouse, 5 minutes), the “Distribution in murine tissues, Blood” value is 0.041 and 0.038; the “Distribution in murine tissues, Brain” value turned out to be 0.004; the “Distribution in murine tissues, Heart” value is 0.041 and 0.052; the “Distribution in murine tissues, Intestine” value is 0.037 and 0.039. In series [2] (mouse, 5 minutes), the “Distribution in murine tissues, Kidney” value was 0.072 and 0.044; the “Distribution in murine tissues, Liver” value is 0.064 and 0.050; the “Distribution in murine tissues, Lung” value was 0.052 and 0.046; the “Distribution in murine tissues, Muscle” value is 0.038 and 0.031. Moreover, in series [2] (mouse, 5 minutes), the “Distribution in murine tissues, Spleen” value is 0.034 and 0.035; the “Distribution in murine tissues, Stomach” value is given as 0.013; the “Distribution in murine tissues, Tibia” value is 0.045 and 0.042; the “Distribution in murine tissues, Urine” value was determined as 0.045. Further, the “Distribution in murine tissues, Cecum” value in series [2] (mouse, 5 minutes, Cecum) is 0.022 and 0.023. In series [2] (mouse, 90 minutes), the “Distribution in murine tissues, Blood” value is 0.005 and 0.007; the “Distribution in murine tissues, Brain” value was 0.003 and 0.005; the “Distribution in murine tissues, Heart” value was 0.006 and 0.009; the “Distribution in murine tissues, Intestine” value is 0.014 and 0.012. In addition, in series [2] (mouse, 90 minutes), the “Distribution in murine tissues, Kidney” value is 0.011 and 0.015; the “Distribution in murine tissues, Liver” value was 0.016 and 0.020; the “Distribution in murine tissues, Lung” value is 0.007 and 0.005; the “Distribution in murine tissues, Muscle” value was 0.005 and 0.009. In series [2] (mouse, 90 minutes), the “Distribution in murine tissues, Spleen” value was 0.005 and 0.007; the “Distribution in murine tissues, Stomach” value was 0.007 and 0.009; the “Distribution in murine tissues, Tibia” value was 0.079 and 0.064; the “Distribution in murine tissues, Urine” value was 0.595 and 0.786. Also, the “Distribution in murine tissues, Esophagus” value in series [2] (mouse, 90 minutes, Esophagus) stood at 0.012. Moreover, in series [2] (mouse, 90 minutes, Tail), the “Distribution in murine tissues, Tail” value was 0.071 and 0.051. The “Visibility of tumor in PET image” value in the series with Morris 7777 hepatoma is given as “clearly visible”.

Turning to `O=C(Cn1ccnc1[N+](=O)[O-])NCCCF` [EF1, (2-(2-nitro-1H-imidazol-1-yl)-N-3-monofluoropropyl) acetamide], the “Affinity of existing antibodies (to EF5 and EF3) towards compound” value in series [3] is “only a modest affinity”.
